Reference: patent US5273992A, “Method for reducing sickle erythrocyte dehydration and delaying the occurrence of erythrocyte sickling in-situ” (Beth Israel Hospital Assoc. Inc., priority 1992, dated 1993)
Values joined by “and” are separate entries in the source; they are usually repeats but may differ in a detail not shown here. Identical values can stand only once. “Also recorded” adds a separate entry of the source. Like-named read-outs stand apart in the source and are kept apart here.

What was measured:
[1] = target: T1, Ca^2+-activated K+ channel (Gardos channel) of sickle erythrocytes (Homo sapiens, UniProt O15554); experiment: Ca^2+-activated ^86Rb influx in sickle (SS) erythrocytes; type: cell-based
T1 construct: Blood was collected after obtaining informed consent from patients; endogenous in cells; host or cells: erythrocytes (SS) from patients homozygous for Hb S
Protocol: Patients homozygous for Hb S disease were selected. Blood was collected after obtaining informed consent from patients followed in the Hematology Division Clinic at Brigham and Women's Hospital and in the Boston Comprehensive Sickle Cell Center at Boston City Hospital. None of the patients had been transfused in the preceding 120 days.
Other experiments were carried out in normal saline (140 mM NaCl, 2 mM KCl, 10 mM tris-HCl, pH 8.0). At the end of the incubation, triplicate samples of each cell suspension were spun at 3,000 g for 10 min. The supernatant was then removed and a smaller volume of medium containing A23187 (60 μM CaCl2, and ^86 Rb was added to achieve a final Hct of 4-5%. Aliquots of cell suspension were taken at specified times (1, 3, and 5 min) and spun through 0.8 ml of medium with 5 mM EGTA and a 0.4 ml cushion of butyl-phthalate. The resultant supernatant and the upper layer of oil were carefully removed, the tube contents frozen at -80° C. and the tube tip containing the cell pellet cut off and counted.

[2] = target: T1, Ca^2+-activated K+ channel (Gardos channel) of sickle erythrocytes; experiment: as above; type: cell-based; conditions: medium 20 mM salt (low ionic strength); for IC50: Dixon plot analysis, read-out: Inhibition of ^86Rb influx, IC50
[3] = system: Ca^2+ activated K+ channel of human red cells; conditions: normal red cells; 50 nM cold ChTX; cited from earlier work
[4] = target: T2, Ca^2+-activated K+ channel of SS cells (Homo sapiens, UniProt O15554); experiment: Displacement of ^125I-ChTX binding in sickle erythrocytes; conditions: for ^125I-ChTX displacement, % of total: 90 min
T2 construct: Blood was collected after obtaining informed consent from patients; endogenous in cells; host or cells: erythrocytes (SS) from patients homozygous for Hb S
Protocol: White cells were removed by passing 0.8 mL of packed red cells through a 5 ml syringe containing a mixture of equal parts of alfa-cellulose and microcrystalline cellulose as originally described by Beutler and West [J. Lab. Clin. Med. 88:328-333 (1976)]. Red cells were washed 3 times in binding medium containing 18 mM NaCl, 2 mM KCl, 10 mM tris-Cl, pH 8.0, 230 mM sucrose and 0.25% bovine serum albumin. A suspension was then made in the same medium at 15% Hct. […] Tubes containing cell suspension were gently rotated for 90 min at room temperature. At the end of the incubation, aliquots of 1 ml were pelleted by microfuge and washed 3 times at 4° C. with a solution containing 200 mM NaCl, 10 mM tris-Cl, pH 8.0. The washed red cell pellet was then lysed in 1 ml of 0.01% Acationox®, and counted in a gamma counter. Aliquots of binding medium were counted prior to addition of cells and at the end of the binding assay.
^125 I-ChTX is a specific ligand of the Ca^2 + activated K+ channel of human red cells. […] To examine the interaction between CLT and the Ca^2 +activated K+ channel of SS cells, the question whether CLT can displace ^125 I-ChTX (50 pM) bound to SS cells was tested.

[5] = system: SS cells (sickle erythrocytes); type: cell-based, human; conditions: for Inhibition of dehydration of SS cells (in words): 60 μmol A23187/L cells, 100 μM CaCl2; for Cell K content at end of incubation: SS cells, A23187 + Ca^2+, average of three experiments (control 279±20, Ca^2+ alone 84.9±24)
Protocol: Cells were incubated for 60 min at 37° C. in a medium containing 140 mM NaCl, 4 mM KCl, 100 μM CaCl2, 1 mM K-phosphate buffer, pH 7.40, 10 mM tris-MOPS, pH 7.40, at 1-2% Hct. A23187 was subsequently added to a final concentration of 60 μmol/l cells under stirring. At the specified time intervals, the cell suspension was diluted with an equal amount of medium containing 5 MM EGTA and 0.1% BSA. The red cells were then washed four times with the same medium at 37° C. This procedure allowed for chelation of extracellular Ca^2 + and removal of A23187. An aliquot of cells washed in this medium was used to measure the distributions of cell volume and hemoglobin concentration with the H2-Technicon blood analyzer, while the remaining cells were washed four times with choline washing solution (144 mM Choline Cl, 1 mM MgCl2, 10 mM tris-MOPS, pH 7.40 at 4° C.) for measurements of internal Na and K contents.
291-300; Ohnishi et al., Biochim Biophys. Acta 1010:199-203 (1989): Horruchi et al., Blood 71:46-51 (1988)]. However, the results are highly dependent on the protocol used for deoxygenation and reoxygenation of SS cells. We reasoned that the inhibitory effect of CLT and other antimycotics on the dehydration mediated by the Ca^2 +-activated K+ channel should be assessed under conditions of maximal activation of this pathway. If the inhibitor is effective in blocking dehydration in these conditions, it should be able to block dehydration due to transient activation of the channel as during sickling. Accordingly, cells were exposed to A23187 in the presence of 100 μM CaCl2 in a medium containing 140 mM NaCl, 4 mM KCI, at pH 7.40, with or without the transport inhibitors.
After removal of ionophore and chelation of Ca, cell volume and hemoglobin concentration were measured on a cell per cell basis with the Technicon H-2 blood analyzer. […] Distribution histograms for red cell volume and hemoglobin concentration are presented in the lower panel. Arbitrarily established gates (hemoglobin concentration<28 and >41 g/dL; cell volume<60 and>120 fL) are used to define hypo- and hyperchromic cells and micro- and macrocytic cells, respectively. The distribution in the control SS cells (incubated with A23187 in the presence of 1 mM EGTA) resembles a teardrop, with reticulocytes and cells with low HC and high MCV in the top side of middle and left quadrant, discocytes in the central quadrant, and dehydrated dense cells in the right side of the middle quadrant. SS cells exposed to A 23187 and Ca^2+ were markedly dehydrated, as shown by the shift of the hemoglobin concentration (HC) histogram to higher values and by the increased HC values (FIG. 4). […] Measurements of cell cation content at the end of the incubation support the view that these effects are due to inhibition of K loss. […]

[6] = target: Gardos channel of sickle erythrocytes (Homo sapiens, UniProt O15554); experiment: Membrane potential (Em) of SS cells with activated Gardos channel; type: cell-based
Chain of Gardos channel of sickle erythrocytes (O15554 whole entry): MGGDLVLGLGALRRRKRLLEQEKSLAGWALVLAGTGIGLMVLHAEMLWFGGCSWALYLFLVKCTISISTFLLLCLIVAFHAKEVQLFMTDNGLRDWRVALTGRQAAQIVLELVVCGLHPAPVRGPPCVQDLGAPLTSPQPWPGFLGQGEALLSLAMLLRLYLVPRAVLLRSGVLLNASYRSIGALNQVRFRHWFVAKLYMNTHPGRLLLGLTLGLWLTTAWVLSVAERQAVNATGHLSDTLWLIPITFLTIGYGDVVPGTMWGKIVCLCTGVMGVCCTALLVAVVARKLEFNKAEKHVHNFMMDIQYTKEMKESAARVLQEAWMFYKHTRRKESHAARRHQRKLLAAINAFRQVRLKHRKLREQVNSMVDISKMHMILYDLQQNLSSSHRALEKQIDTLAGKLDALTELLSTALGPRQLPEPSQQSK
Protocol: Measurements of the proton distribution ratio in unbuffered media in the presence of the proton ionophore CCCP allow estimation of the red cell membrane potential (Em). Erythrocytes were washed twice at room temperature with unbuffered medium of the desired composition and added with stirring to 5 ml of the same medium to a final Hct of 5%. All media contained 100 μM ouabain, 10 μM bumetanide, 10 μM DIDS, 10 μM methazolamide and 50 μM CCCP (50 mM stock solution in DMSO. The medium was maintained at 37° C., and pH was recorded for one min prior and 10 min following addition of the red cells. Inhibitors were added to the specified final concentration by appropriate dilution from 10 mM stocks. For internal pH measurements, 20 μl of 10% (v/v) Triton X-100 were added to the cell suspension in unbuffered medium under stirring, and the pH of the resultant lysate measured and assumed to equal pHi. Em was calculated from the equation [formula] [pHi --pHo ], as detailed in Halpern et al, Am. J. Physiol. 257:c986-c996 (1989).
When the Gardos channel is activated, the increased permeability for K+ shifts the membrane potential away from the equilibrium potential for Cl- (ECI) toward the equilibrium potential for K+(EK). This effect is magnified with the Cl-permeability is inhibited by DIDS.

[7] = system: AE1 (band 3) chloride/bichloride exchanger; experiment: ^35SO4 influx into AA erythrocytes (AE1 function); type: cell-based, human
Protocol: The protocol used by Schofield et al. [Nature 355:836-838 (1992)] was used to measure ^35 SO2- uptake in AA erythrocytes.
To determine if the inhibition of Ca^2 +-activated ^86 Rb flux was secondary to an inhibitory effect on the membrane Cl-permeability, the effect of the various compounds on the ^35 SO4 influx was assessed. This assay is a measure of function of the major transport system for red cells, the AE1 (band 3) chloride/bichloride exchanger.

[8] = in vivo; cited from earlier work
[9] = SS erythrocytes, medium 140 mM salt (normal saline)
[10] = SS erythrocytes, medium 140 mM salt (normal saline), Dixon plot analysis, read-out: Inhibition of ^86Rb influx, IC50
[11] = SS erythrocytes, medium 20 mM salt
[12] = SS erythrocytes, medium 20 mM salt, read-out: ^125I-ChTX displacement, IC50
[13] = Inhibition of ^86Rb influx, IC50

Molecule: CHARYBDOTOXIN
- Inhibition of ^86Rb influx, % maximum [1, 9]: 52%
- IC50 [1, 10]: 0.36 nM
- Inhibition of ^86Rb influx, % maximum [2]: 95.5%
- IC50 [2]: 0.096 nM
- Total binding displaced by excess cold ChTX [3]: 60-70%
- ^125I-ChTX displacement, % of total [4, 11]: 74.5%
- IC50 [4, 12]: 0.033 nM
- Inhibition of dehydration of SS cells (in words) ([5]; 10 μM CLT, 50 nM ChTX): partially inhibited dehydration
- Cell K content at end of incubation ([5]; 50 nM ChTX): 192.8±39 mmol/Kg Hb

Molecule: Clc1ccc(COC(Cn2ccnc2)c2ccc(Cl)cc2Cl)cc1 (stereo not shown) [Econazole, 1-[2-[(4-chlorophenyl)methoxyl]-2-(2,14-dichlorophenyl)ethyl]-1H-imidacole]
- Inhibition of ^86Rb influx, % maximum [1]: 31% and 47%
- IC50 [1, 13]: 270 nM and 575 nM
- IC50 [4]: 205 nM
- ^125I-ChTX displacement, % of total ([4]; sickle erythrocytes): 37%

Molecule: CCS(=O)(=O)CCn1c([N+](=O)[O-])cnc1C [Tinidazole]
- Inhibition of ^86Rb influx at 10 μM (in words) ([1]; SS erythrocytes): only marginally
- Inhibition of ^86Rb influx, % maximum [1, 9]: 3%
- Inhibition of ^86Rb influx, % maximum [2]: 21%

Molecule: Cc1ncc([N+](=O)[O-])n1CCO [Metronidazole, 2-methyl-5-nitroimidazole-1-ethanol]
- Inhibition of Ca^2+-activated ^86Rb influx / K+ transport (in words) ([1]; SS erythrocytes): partially inhibited
- Sequence / rank of inhibitory potency on the Gardos pathway ([1]; SS erythrocytes): clotrimazole>miconazole>econazole>metronidazole
- Inhibition of ^86Rb influx, % maximum [1, 9]: 36%
- IC50 [1, 10]: 440 nM
- Inhibition of ^86Rb influx, % maximum [2]: 28%
- IC50 [2]: 850 nM
- ^125I-ChTX displacement, % of total [4, 11]: 49%
- IC50 [4, 12]: 580 nM

Molecule: Cc1ncc([N+](=O)[O-])n1CC(O)CCl (stereo not shown) [Ornidazole]
- Inhibition of ^86Rb influx at 10 μM (in words) ([1]; SS erythrocytes): only marginally
- Inhibition of ^86Rb influx, % maximum [1, 9]: 21%
- Inhibition of ^86Rb influx, % maximum [2]: 11%

Molecule: Clc1ccccc1C(c1ccccc1)(c1ccccc1)n1ccnc1 [Clotrimazole, 1-[(2-chlorophenyl)diplenylmethyl]-1H-imidazole]
- Inhibition of Ca^2+-activated ^86Rb influx / K+ transport (in words) [1]: markedly inhibited
- Inhibition of ^86Rb influx, % maximum [1]: 87% and 93%
- ^125I-ChTX displacement (in words) [4]: displaced ^125 I-ChTX in a dose-dependent manner
- ^125I-ChTX displacement, % of total ([4]; sickle erythrocytes): 74.5%
- Inhibition of dehydration of SS cells (in words) ([5]; 10 μM CLT, 50 nM ChTX, listed as CLT): more pronounced than that by 50 nM ChTX; also recorded: substantially prevented dehydration; also recorded: markedly inhibited the dehydration of sickle cells
- Cell K content at end of incubation ([5]; 10 μM CLT): 210±30 mmol/Kg Hb
- Effect on K+ permeability and membrane potential (Em) ([6]; SS cells, A23187 and 50 μM CaCl2): markedly reduced K+ permeability and shifted Em from EK
- Inhibitory potency on membrane potential changes ([6]; low ionic strength vs normal saline, listed as CLT): higher in low ionic strength conditions than in normal saline
- Influx of the anion SO4 [7]: not affected

Molecule: OC(Cn1cncn1)(Cn1cncn1)c1ccc(F)cc1F [Fluconazole]
- Inhibition of Ca^2+-activated ^86Rb influx / K+ transport (in words) ([1]; SS erythrocytes): non-active
- Inhibition of Ca^2+-activated ^86Rb influx / K+ transport (in words) ([1]; SS erythrocytes, listed as fluconazole): no inhibition
- Inhibition of ^86Rb influx, % maximum [1, 9]: 0%
- Inhibition of ^86Rb influx, % maximum [2]: 0%
- ^125I-ChTX displacement, % of total [4, 11]: 19%

Molecule: Clc1ccc(COC(Cn2ccnc2)c2ccc(Cl)cc2Cl)c(Cl)c1 (stereo not shown) [Miconazole]
- Inhibition of ^86Rb influx, % maximum [1]: 63% and 49%
- IC50 [1, 13]: 110 nM and 100 nM
- IC50 [4]: 165 nM
- ^125I-ChTX displacement, % of total ([4]; sickle erythrocytes): 57%
- Marrow hyoplasia, share of the use cases [8]: 40%
